The target of one test is T1, Thrombin (Homo sapiens, UniProt P00734).
T1 construct: Thrombin is obtained from human plasma; purchased Sigma Chemical Co; host or cells: human plasma
Kind of test: Thrombin inhibition, spectrophotometric assay (p-nitroaniline liberation). It counts as biochemical. To be noted: thrombin from human plasma; substrate Sarcosyl-Proline-Arginine-p-nitroanilide; 0.1M Tris pH 7.4; 30° C. As for the experimental part: Chem., 329, p. 278 (1962), in which the liberation of p-nitroaniline is determined by measuring the increase in absorbance at 405 nm (ε=10800M^-1 cm^-1). Thrombin is obtained from human plasma, available from Sigma Chemical Co. wherein the activity is expressed in NIH units. One vial contains 290 units (specific activity=3000 units per mg of protein) as a lyophilized powder which is reconstituted with 1 mL of water. The substrate is the chromophoric peptide, Sarcosyl-Proline-Arginine-p-nitroanilide (Km =0.9 mM), the buffer is 0.1M Tris, pH 7.4 (final volume 1 mL) and the assay is carried out at a temperature of about 30° C. with 0.029 NIH units of enzyme required per assay. Kinetic characterization of immediate inhibitors is by means of the Dixon plot, whereas the characterization of slow- and/or tight-binding inhibitors uses data analysis techniques reviewed by Williams and Morrison. Kinetic characterization of time dependent inhibitors is by means of a Kitz & Wilson plot, Kitz R. and Wilson I. B., J. Biol. Chem., 237, 3245-3249 (1962).

Another test addresses T2, Trypsin (Sus scrofa, UniProt P00761).
T2 construct: Trypsin is obtained from porcine pancreas; purchased Sigma Chemical Co; host or cells: porcine pancreas
Kind of test: Trypsin inhibition, spectrophotometric assay (p-nitroaniline liberation). The class given is biochemical. As to conditions: trypsin from porcine pancreas; substrate Benzoyl-Arginine-p-nitroanilide; 0.05M Tris, 0.05M CaCl2, pH 7.8; 30° C. As for the experimental part:
Chem., 329, p. 278 (1962), immediately described above. Trypsin is obtained from porcine pancreas, available from Sigma Chemical Co. wherein the activity is expressed in Sigma units. The specific activity of the trypsin source is 15900 Sigma units per mg of protein where one unit is defined as the amount of enzyme that gives an increase in absorbance at 253 nm of 0.001 per min as the result of the hydrolysis of Benzoyl-Arginine-Ethylester, at pH 7.6 and 25° C. The substrate is the peptide Benzoyl-Arginine-p-nitroanilide (KM =[…]), the buffer is 0.05M Tris, 0.05M CaCl2, pH 7.8 (final volume 1 mL) and the assay is carried out at a temperature of 30° C. with 8 Sigma units of enzyme required per assay. Kinetic characterization of immediate inhibitors is by means of the Dixon plot, whereas the characterization of slow- and/or tight-binding inhibitors uses data analysis techniques reviewed by Williams and Morrison. Kinetic characterization of time dependent inhibitors is by means of a Kitz & Wilson plot.

Another test deals with clotting time (aPTT). As to the kind of experiment: Coagulation assay: activated partial thromboplastin time (aPTT), concentration doubling the clotting time. To be noted: calculated by simple linear regression. Details: species or system rat. Here is the method: Male Sprague-Dawley rats (200-450 gm) purchased from Harlan Sprague Dawley, Inc., (Indianapolis, Ind. 46229) were used in these studies.
Activated partial thromboplastin time (aPTT) determinations are carried out using the reagents and methods of Dade Diagnostics, Inc. (Aguada, Puerto Rico 00602). All clotting times were measured semiautomatically using a MLA-Electra 750, MLA, Inc. (Pleasantville, N.Y. 10570). The concentration required for doubling the clotting time (ID2) was calculated using simple linear regression.

In the next test the test system is aPTT in rat plasma. Kind of test: In vivo measurement of aPTT in rat plasma after injection. To be noted: n = 2. An excerpt:
Activated partial thromboplastin time (aPTT) measurements were made in rat plasma at various times after injecting the animals with TFA·HNMe-D-Phe-L-Pro-D,L-Trp--CF2 CF3. Male Sprague-Dawley rats (200-450 g) purchased from Harlan Sprague Dawley, Inc., (Indianapolis, Ind. 46229) are used in these studies. […]

T2 sequence (P00761 9-231): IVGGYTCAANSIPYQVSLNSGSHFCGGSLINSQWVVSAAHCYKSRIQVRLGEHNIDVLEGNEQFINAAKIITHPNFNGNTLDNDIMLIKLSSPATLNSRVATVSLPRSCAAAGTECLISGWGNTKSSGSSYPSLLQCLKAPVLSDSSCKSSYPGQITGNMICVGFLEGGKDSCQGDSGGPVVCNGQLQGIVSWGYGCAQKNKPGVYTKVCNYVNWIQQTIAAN

For the molecule `CN[C@H](Cc1ccccc1)C(=O)N1CCC[C@H]1C(=O)NC(Cc1c[nH]c2ccccc12)C(=O)C(F)(F)C(F)(F)F.O=C(O)C(F)(F)F` (stereo partly drawn) [TFA.HNMe-D-Phe-L-Pro-D,L-Trp-CF2 CF3, L-Prolinamide, N-methyl-D-phenylalanyl-N-[3,3,4,4,4-pentafluoro-1-(1H-indol-3-ylmethyl)-2-oxobutyl]-, mono(trifluoroacetate)], the Ki (commonly the equilibrium dissociation constant of an inhibitor or competing ligand from its target) was 0.45 µM on Thrombin and roughly 100 µM on Trypsin. In the test with clotting time (aPTT), the “ID2 (concentration required for doubling the clotting time)” value was 44.9 µM. The aPTT in the test with aPTT in rat plasma (5 mg/kg i.v., 0 min. after dosing) was 21.2 s; in the test with aPTT in rat plasma (5 mg/kg i.v., 5 min. after dosing), 19.0 s; in the test with aPTT in rat plasma (5 mg/kg i.v., 15 min. after dosing), 22.7 s; in the test with aPTT in rat plasma (5 mg/kg i.v., 30 min. after dosing) it was 18.6 s; with aPTT in rat plasma (5 mg/kg i.v., 60 min. after dosing), 17.6 s; with aPTT in rat plasma (10 mg/kg i.v., 0 min. after dosing), 18.8 s. In addition, the aPTT turned out to be 17.4 s in the test with aPTT in rat plasma (10 mg/kg i.v., 5 min. after dosing); 18.0 s with aPTT in rat plasma (10 mg/kg i.v., 15 min. after dosing); 15.7 s in the test with aPTT in rat plasma (10 mg/kg i.v., 30 min. after dosing); 12.6 s in the test with aPTT in rat plasma (10 mg/kg i.v., 60 min. after dosing); 19.2 s with aPTT in rat plasma (30 mg/kg i.p., 0 min. after dosing); 20.8 s with aPTT in rat plasma (30 mg/kg i.p., 5 min. after dosing). In addition, the aPTT stood at 19.2 s in the test on aPTT in rat plasma (30 mg/kg i.p., 15 min. after dosing); 19.4 s in the test on aPTT in rat plasma (30 mg/kg i.p., 30 min. after dosing); 18.7 s in the test on aPTT in rat plasma (30 mg/kg i.p., 60 min. after dosing).
